Measured values as given in patent US12509482B2, “3′-ketoglycoside compound for the slow release of a volatile alcohol” (GLYCOSCIENCE, S.L., priority 2020, dated 2025).
Where two headings read alike, the source gives them in different places.

How the values were obtained:
Assay type in all cases: physicochemical
[1] = Example 30: competitive release of alcohol from substrate stock solutions A-D (methyl-O-α-D-3′-ketoglucopyranoside, methyl-O-α-D-glucopyranoside, phenyl-O-β-D-3′-ketoglucopyranoside, phenyl-O-β-D-glucopyranoside, each with 4-nitrophenyl-O-β-D-glucopyranoside), 0.1 M phosphate buffer, 37° C., presence and absence of fresh skin wash; conditions: for alcohol release (in words): 37° C.
Source text: In this example, phenyl-O-β-D-3′-ketoglucopyranoside, methyl-O-α-D-3′-ketoglucopyranoside, phenyl-O-β-D-glucopyranoside, methyl-O-α-D-glucopyranoside and 4-nitrophenyl-O-β-D-glucopyranoside were used as model compounds to determine the rate of release of their respective alcohol rests under different conditions.
The competitive rate of release of methanol or phenol and 4-nitrophenol from a 1:1 stoichiometric mixture of (2R,5S,6S)-3,5-dihydroxy-2-(hydroxymethyl)-6-phenoxytetrahydro-4H-pyran-4-one (phenyl-O-β-D-3′-ketoglucopyranoside) or (2R,3R,5S,6S)-3,5-dihydroxy-2-(hydroxymethyl)-6-methoxytetrahydro-4H-pyran-4-one (methyl-O-α-D-3′ketoglucopyranoside) and their respective 0-glucopyranosides against (2R,3S,4S,5R,6S)-2-(hydroxymethyl)-6-(4-nitrophenoxy)tetrahydro-2H-pyran-3,4,5-triol (4-nitrophenyl-O-β-D-glucopyranoside) in 0.1 M deuterated phosphate buffer solutions at pH 5.7 and 7.0 containing 10% D6-DMSO at room temperature in the presence and absence of fresh skin washing solution was determined.
1 M Stock solutions of sodium dihydrogen phosphate and disodium hydrogen phosphate were prepared in deuterated water (D2O).
4-Nitrophenyl-O-β-D-glucopyranoside (50 mg) was dissolved in D6-DMSO (1 mL) and 0.2 mL of the resultant solution added to each of 10 mg of methyl-O-α-D-3′-ketoglucopyranoside, methyl-O-α-D-glucopyranoside, phenyl-O-β-D-3′-ketoglucopyranoside and phenyl-O-β-D-glucopyranoside to give substrate stock solutions A, B, C and D respectively.
In a typical experiment, a stock solution of fresh skin wash suspension was prepared by swabbing a 25 cm^2 area of cheek skin of a human volunteer by robustly rubbing the area with a cotton wool gauze (5×5 cm^2) soaked in D2O (12.5 mL) for 1 minute and then resuspending the gauze in the D2O solution, rapidly shaking and removing the gauze after squeezing out as much liquid as possible with a spatula.
1 M Stock solutions of phosphate buffer, pH 5.7 and 7.0 were prepared by appropriately mixing 1 M stock phosphate salts solutions to the correct pH as determined using a calibrated pH meter.
Half of each buffer stock solution was diluted ten times with D2O and the other with the above skin washing stock solution to give a 0.1 M phosphate buffer in D2O with a final pH of 5.7, 0.1 M phosphate buffer in D2O with a final pH of 7.0, a 0.1 M phosphate buffer in skin wash solution with a final pH of 5.7 and a 0.1 M phosphate buffer in skin wash solution with a final pH of 7.0.
To sixteen parallel reaction vials, was added 0.45 mL of low or high pH 0.1M phosphate buffer in D2O or 0.45 mL of low or high pH 0.1M phosphate buffer in skin wash solution followed by 0.05 mL of one of the glycoside substrate solutions in D6-DMSO and the mixtures incubated by shaking at 37° C. After times indicated in the table below, the mixtures where analysed by ^1H-NMR with 128 scans using a 400 MHz instrument and the colour observed visually, with the results shown in Table XVII: […]

[2] = Example 13: release of 4-nitrophenol from substrate A (4-nitrophenyl-O-β-D-3′-ketoglucopyranoside) vs substrate B (4-nitrophenyl-O-β-D-glucopyranoside), 0.1 M deuterated phosphate buffer or water, 10% D6-DMSO, room temperature; conditions: for 4-nitrophenol release (in words): varying solution pH, room temperature, 0.5 mL of aqueous solution; for composition by 1H-NMR (aromatic signals): approximately 26 h
Protocol: In this example, 4-nitrophenyl-O-β-D-3′-ketoglucopyranoside and 4-nitrophenyl-O-beta-D-glucopyranoside were used as model compounds to determine the rate of release of an aromatic alcohol (4-nitrophenol) under different conditions.
Rate of release of 4-nitrophenol from (2R,3R,5S,6S)-3,5-dihydroxy-2-(hydroxymethyl)-6-(4-nitrophenoxy)tetrahydro-4H-pyran-4-one (4-nitrophenyl-O-β-D-3′-ketoglucopyranoside) was determined in comparison to (2R,3S,4S,5R,6S)-2-(hydroxymethyl)-6-(4-nitrophenoxy)tetrahydro-2H-pyran-3,4,5-triol (para-nitrophenyl-O-β-D-glucopyranoside) in 0.1 M deuterated phosphate buffer solutions of differing pH containing 10% D6-DMSO or in water containing 10% D6-DMSO at room temperature.
1 M Stock solutions of sodium dihydrogen phosphate and disodium hydrogen phosphate were prepared in deuterated water (D2O). Stock solutions of 25 mg of 4-nitrophenyl-O-β-D-3′-ketoglucopyranoside (substrate A), 25 mg of 4-nitrophenyl-O-β-D-glucopyranoside (substrate B) in 0.5 mL of D6-DMSO were each prepared and a stock solution of 11 mg of 4-nitrophenol in the same volume of D6-DMSO for visual comparison.
Solutions of pH 4.5, 5.8, 7.4 and 9.5 were prepared by dilution of the appropriate individual or mixture of stock phosphate salt solutions to 0.1 M using a calibrated pH meter.
To ten parallel reaction vials was added 0.05 mL of one of the glycoside substrate stock solutions in D6-DMSO, 0.5 mL of the appropriate deuterated buffer solution or 0.5 mL of water were indicated in Table I below. The reaction vials were allowed to stand at room temperature and the colour of the solutions recorded by visual observation relative to the colour of authentic 4-nitrophenol solutions diluted in the same way, as shown in Table I:
After approximately 26 h, reactions 2 to 5 were all analysed by ^1H-NM R using 128 scans on a 400 MHz instrument.

[3] = Example 21: release of methanol from substrate A (methyl-O-α-D-3′-ketoglucopyranoside) vs substrate B (methyl-O-α-D-glucopyranoside), 0.1 M phosphate buffer or water, room temperature then 37° C.
Protocol: In this example, methyl-O-α-D-3′-ketoglucopyranoside and methyl-O-α-D-glucopyranoside were used as model compounds to determine the rate of release of an aliphatic alcohol (methanol) under different conditions.
1 M Stock solutions of sodium dihydrogen phosphate and disodium hydrogen phosphate were prepared in deuterated water (D2O). Stock solutions of 15 mg of methyl-O-α-D-3′-ketoglucopyranoside (substrate A) and methyl-O-α-D-glucopyranoside (substrate B) were each prepared by dissolving in 0.3 mL of D6-DMSO.
Solutions of pH 4.5, 5.8 and 7.4 were prepared by dilution of the appropriate individual or mixture of stock phosphate salt solutions to 0.1 M using a calibrated pH meter.
To eight parallel reaction vials was added 0.05 mL of one of the glycoside substrate solutions in D6-DMSO, 0.5 mL of the appropriate deuterated buffer solution or 0.5 mL of water were indicated in the table below and the mixtures analysed by ^1H-NMR with 128 scans using a 400 MHz instrument to give an initial time reading.
The mixtures were then analysed in the same way after allowing to stand at room temperature for a further 22 h.
The mixtures were then incubated by shaking at 37° C. for a further 44 h and analysed in the same way.

[4] = Description: alcohol release from model compounds (III), (IV) and compound (V) in buffer, water and skin washings; conditions: for phenol release (in words): after 60 h
[5] = Example 22: competitive release of para-nitrophenol from an approximately equimolar solution of 4-nitrophenyl-O-β-D- and -O-α-D-3′-ketoglucopyranoside, 32° C., 1H NMR integrals
Source text: In this example the competitive rate of release of para-nitrophenol from an approximately equimolar solution of (2R,5S,6S)-3,5-dihydroxy-2-(hydroxymethyl)-6-(4-nitrophenoxy)tetrahydro-4H-pyran-4-one (4-nitrophenyl-O-β-D-3′-ketoglucopyranoside) and (2R,5S,6S)-3,5-dihydroxy-2-(hydroxymethyl)-6-(4-nitrophenoxy)tetrahydro-4H-pyran-4-one (4-nitrophenyl-O-α-D-3′-ketoglucopyranoside) in D2O containing 1.5% D6-DMSO or in 0.1 M deuterated phosphate buffer, pH 5.8 containing 1.5% D6-DMSO or in D2O was determined.
A solution containing approximately 2 mg each of 4-nitrophenyl-O-β-D-3′-ketoglucopyranoside and 4-nitrophenyl-O-α-D-3′-ketoglucopyranoside was prepared in 1 mL of D2O containing 3.3% v/v D6-DMSO. To two 0.375 mL portions of the resultant solution was added either D2O (0.5 mL) or 0.1M sodium phosphate buffer, pH 5.8 (0.5 mL) to given reactions 1 and 2 respectively. The resultant mixtures were analysed by ^1H NMR directly following preparation then incubated at 32° C./80 rpm and periodically analysed by ^1H NMR at recorded time points.
The change in the ratio between the integrals of the anomeric protons of each ketoglucoside and between the were sum of the anomeric protons and the anomeric protons of each ketoglucoside with time are shown in Table IX: […]

[6] = pH 5.7, presence and absence of skin washing

O=[N+]([O-])c1ccc(O[C@@H]2O[C@H](CO)[C@@H](O)[C@H](O)[C@H]2O)cc1 [4-nitrophenyl-O-β-D-glucopyranoside, (2R,3S,4S,5R,6S)-2-(hydroxymethyl)-6-(4-nitrophenoxy)tetrahydro-2H-pyran-3,4,5-triol]
alcohol release (in words) ([1]; pH 7, presence and absence of skin washings): release some 4-nitrophenol visually at pH 7 and typically to a greater extent in the presence of skin washings, but to such a low extent that no change was observed by NMR | 4-nitrophenol release (in words) [2]: releases virtually no 4-nitrophenol

CO[C@H]1O[C@H](CO)[C@@H](O)[C@H](O)[C@H]1O [methyl-O-α-D-glucopyranoside]
stability (in words) ([1]; all conditions tested (pH 5.7 and 7.0, with and without skin washing, 37° C.)): stable under all conditions tested | stability / methanol release (in words) [3]: remains stable over the pH range tested and in water

O=C1[C@@H](O)[C@H](Oc2ccccc2)O[C@H](CO)[C@H]1O [phenyl-O-β-D-3′-ketoglucopyranoside, (2R,5S,6S)-3,5-dihydroxy-2-(hydroxymethyl)-6-phenoxytetrahydro-4H-pyran-4-one]
alcohol release (in words) [1, 6]: reacts slower than at pH 7 and to the same extent in the presence and absence of skin washing | phenol release (in words) ([4]; buffer alone): a small quantity of conjugate remained | phenol release (in words) ([4]; in the presence of skin washing): complete release of phenol

O=C1[C@@H](O)[C@H](Oc2ccc([N+](=O)[O-])cc2)O[C@H](CO)[C@H]1O [(2R,5S,6S)-3,5-dihydroxy-2-(hydroxymethyl)-6-(4-nitrophenoxy)tetrahydro-4H-pyran-4-one]
ratio of the sum of aromatic/β-ketoglucoside proton integrals ([5]; Reaction 1, D2O, 0 h): 6.8 | ratio of the sum of aromatic/β-ketoglucoside proton integrals ([5]; Reaction 1, D2O, 20 h): 8.3 | ratio of the sum of aromatic/β-ketoglucoside proton integrals ([5]; Reaction 1, D2O, 45 h): 8.8 | ratio of the sum of aromatic/β-ketoglucoside proton integrals ([5]; Reaction 1, D2O, 143 h): 8.3 | ratio of the sum of aromatic/β-ketoglucoside proton integrals ([5]; Reaction 2, 0.1M sodium phosphate buffer, pH 5.8, 0 h): 6.6 | ratio of the sum of aromatic/β-ketoglucoside proton integrals ([5]; Reaction 2, 0.1M sodium phosphate buffer, pH 5.8, 20 h): 7.2 | ratio of the sum of aromatic/β-ketoglucoside proton integrals ([5]; Reaction 2, 0.1M sodium phosphate buffer, pH 5.8, 45 h): 9.7 | ratio of the sum of aromatic/β-ketoglucoside proton integrals ([5]; Reaction 2, 0.1M sodium phosphate buffer, pH 5.8, 143 h): 10.6 | composition by 1H-NMR (aromatic signals) ([2]; reaction 2, pH 4.5): only starting material | composition by 1H-NMR (aromatic signals) ([2]; reaction 3, pH 5.8): a mixture to starting material and 4-nitrophenol | composition by 1H-NMR (aromatic signals) ([2]; reaction 4, pH 7.4): almost entirely 4-nitrophenol with a trace of starting material | composition by 1H-NMR (aromatic signals) ([2]; reaction 5, pH 9.5): almost entirely 4-nitrophenol with a trace of starting material | 4-nitrophenol release (in words) [2]: from no release at low pH to the delivery of μg quantities of 4-nitrophenol per minute

OC[C@H]1O[C@@H](Oc2ccccc2)[C@H](O)[C@@H](O)[C@@H]1O [phenyl-O-β-D-glucopyranoside]
stability (in words) ([1]; pH 5.7): stable under all conditions tested

CO[C@H]1O[C@H](CO)[C@@H](O)C(=O)[C@H]1O [methyl-O-α-D-3′-ketoglucopyranoside, (2R,3R,5S,6S)-3,5-dihydroxy-2-(hydroxymethyl)-6-methoxytetrahydro-4H-pyran-4-one]
alcohol release (in words) [1, 6]: no reaction is observed | methanol release (in words) ([4]; 0.1M sodium phosphate buffer in D2O, pH 7.0, 37° C., after 36 h): slowly liberates methanol | stability (in words) ([4]; deionised water, acidic pH): remained stable in deionised water and relatively stable at acidic pH | methanol release in the presence of skin washings (in words) ([4]; same temperature and pH (37° C., pH 7.0)): significantly more methanol than had been observed in buffer alone | stability / methanol release (in words) ([3]; 37° C., pH range tested and water): stable at pH 4.5 and 5.8, but very slowly generates methanol at pH 7.4
